Reference: patent US7847065B2, “CXADRL1 polypeptides relating to human cancers” (Oncotherapy Science, Inc., priority 2002, dated 2010)
Ends that are not written are not given here.

Legend:
RNF43 = assay: Suppression of RNF43 expression by antisense S-oligonucleotide (semi-quantitative RT-PCR), LoVo cells; assay type: cell-based, human; conditions: 12 hours after transfection
Procedure: Total RNA was extracted with Qiagen RNeasy kit (Qiagen) or Trizol reagent (Life Technologies) according to the manufacturers' protocols. Ten-microgram aliquots of total RNA were reversely transcribed for single-stranded cDNAs using poly dT12-18 primer (Amersham Pharmacia Biotech) with Superscript II reverse transcriptase (Life Technologies). Each single-stranded cDNA preparation was diluted for subsequent PCR amplification by standard RT-PCR experiments carried out in 20 μl volumes of PCR buffer (TaKaRa). Amplification was conducted under following conditions: denaturing for 4 min at 94° C., followed by 20 (for GAPDH), 35 (for CXADRL1), 30 (for GCUD1), 30 (for RNF43) cycles of 94° C. for 30 s, 56° C. for 30 s, and 72° C. for 45 s, in GeneAmp PCR system 9700 (Perkin-Elmer, Foster City, Calif.). Primer sequences were; for GAPDH: forward, 5′-[…] (SEQ ID NO: 7) and reverse, 5′-[…] (SEQ ID NO: 8); for CXADRL1: forward, 5′-[…] (SEQ ID NO: 9) and reverse: 5′-TATAAACCAG CTGAGTCCAGAG (SEQ ID NO: 10); for GCUD1 forward: 5′-[…] (SEQ ID NO: 11) reverse: 5′-[…] (SEQ ID NO: 12), for RNF43 forward; 5′-[…]-3′ (SEQ ID NO: 13) and reverse; 5′-[…]-3′ (SEQ ID NO: 14).
Cells plated onto 10-cm dishes (2×10^5 cells/dish) were transfected either with plasmid, or synthetic S-oligonucleotides of CXADRL1, GCUD1, or RNF43 using LIPOFECTIN Reagent (GIBCO BRL). […]

LoVo colon cancer cells = assay: MTT assay after transfection of S-oligonucleotides, LoVo; assay type: cell-based, human; conditions: six days after transfection
Procedure: Cells plated onto 10-cm dishes (2×10^5 cells/dish) were transfected either with plasmid, or synthetic S-oligonucleotides of CXADRL1, GCUD1, or RNF43 using LIPOFECTIN Reagent (GIBCO BRL). Then the cells were cultured with the addition of an appropriate concentration of geneticin for six to twelve days. The cells were then fixed with 100% methanol and stained by Giemsa solution. Sequences of the S-oligonucleotides were as follows:
Cells plated at a density of 5×10^5 cells/100 mm dish were transfected in triplicate with sense or antisense S-oligonucleotides designated to suppress the expression of CXADRL1, GCUD1, or RNF43. […] Subsequently, the cells were lysed by the addition of 1 ml of 0.01 N HCl/10% SDS and the absorbance of lysates was measured with ELISA plate reader at a test wavelength of 570 nm (reference, 630 nm). The cell viability was represented by the absorbance compared to that of control cells.

Procedure for HCT116: (§1) Target cells were labeled with 100 μCi of Na2^51CrO4 (Perkin Elmer Life Sciences) for 1 h at 37° C. in a CO2 incubator. When peptide-pulsed targets were used, target cells were incubated with the addition of 20 μg/ml of the peptide for 16 h at 37° C. before the labeling with Na2^51CrO4. Target cells were rinsed and mixed with effectors at a final volume of 0.2 ml in round-bottom microtiter plates. The plates were centrifuged (4 minutes at 800×g) to increase cell-to-cell contact and placed in a CO2 incubator at 37° C. After 4 h of incubation, 0.1 ml of the supernatant was collected from each well and the radioactivity was determined with a gamma counter. In case of evaluating cytotoxicity against target cells that endogenously express RNF43, CXADRL1, or GCUD1, the cytolytic activity was tested in the presence of a 30-fold excess of unlabeled K562 cells to reduce any non-specific lysis due to NK-like effectors. […]
(§2) The percentage of specific cytotoxicity was determined by calculating the percentage of specific ^51Cr-release by the following formula: {(cpm of the test sample release−cpm of the spontaneous release)/(cpm of the maximum release−cpm of the spontaneous release)}×100. Spontaneous release was determined by incubating the target cells alone in the absence of effectors, and the maximum release was obtained by incubating the targets with 1N HCl. […]
Procedure for HT29: (§3) Target cells were labeled with 100 μCi of Na2^51CrO4 (Perkin Elmer Life Sciences) for 1 h at 37° C. in a CO2 incubator. When peptide-pulsed targets were used, target cells were incubated with the addition of 20 μg/ml of the peptide for 16 h at 37° C. before the labeling with Na2^51CrO4. Target cells were rinsed and mixed with effectors at a final volume of 0.2 ml in round-bottom microtiter plates. The plates were centrifuged (4 minutes at 800×g) to increase cell-to-cell contact and placed in a CO2 incubator at 37° C. After 4 h of incubation, 0.1 ml of the supernatant was collected from each well and the radioactivity was determined with a gamma counter. In case of evaluating cytotoxicity against target cells that endogenously express RNF43, CXADRL1, or GCUD1, the cytolytic activity was tested in the presence of a 30-fold excess of unlabeled K562 cells to reduce any non-specific lysis due to NK-like effectors. […] The MHC restriction was examined by blocking assay, measuring the inhibition of the cytotoxicity with anti-HLA-class I (W6/32) antibody and anti-HLA-class II antibody, or anti-CD4 antibody and anti-CD8 antibody (DAKO).
(§4) The percentage of specific cytotoxicity was determined by calculating the percentage of specific ^51Cr-release by the following formula: {(cpm of the test sample release−cpm of the spontaneous release)/(cpm of the maximum release−cpm of the spontaneous release)}×100. Spontaneous release was determined by incubating the target cells alone in the absence of effectors, and the maximum release was obtained by incubating the targets with 1N HCl. All determinants were done in duplicate, and the standard errors of the means were consistently below 10% of the value of the mean.
Procedure for SNU-C4: as §1, §2
Procedure for TISI cells (HLA-A24/24): as §3, §4
Procedure for WiDR cells: as §3

Substance	Expression of RNF43 compared to control S-oligonucleotides (RNF43-S1) (RNF43)	Number of surviving cells compared with RNF43-S1 (LoVo colon cancer cells)	Cytotoxic activity of CTL clone on irrelevant peptide pulsed TISI (TISI cells (HLA-A24/24))	Cytotoxicity of CTL lines (9mer) ×2 Pep(+) (TISI cells (HLA-A24/24))	Cytotoxicity of CTL lines (9mer) ×2 Pep(−) (TISI cells (HLA-A24/24))	Cytotoxicity of CTL lines (9mer) ×20 Pep(+) (TISI cells (HLA-A24/24))	Cytotoxicity of CTL lines (9mer) ×20 Pep(−) (TISI cells (HLA-A24/24))	Cytotoxic activity of CTL clone on HT29 (HT29)	Cytotoxicity of CTL clone on WiDR with anti-HLA-Class I, CD3, and CD8 antibodies (WiDR cells)	Cytotoxic activity of CTL clone on HCT116 (HCT116)	Cytotoxic activity of CTL clone on WiDR (WiDR)	Cytotoxic activity of CTL clone against SNU-C4 (SNU-C4)
5′-ACCACTCATGCTACCA-3′ (phosphorothioate, further chemistry not given here) [RNF43-AS1, antisense S-oligonucleotide]	significantly suppressed	significantly fewer										
NSQPVWLCL [RNF43-721, NSQPVWLCL]			did not show any cytotoxic activity	26%	0%	68%	0%	potent cytotoxic activity	significantly inhibited	did not show any cytotoxic activity	potent cytotoxic activity	did not show any cytotoxic activity
